≈ marks a conversion by molar mass, not a printed value. Where two headings read alike, the source gives them in different places.
Columns and labels:
[1] = tested on: POLR2A Ser2 phosphorylation (CDK9); assay: POLR2A Ser2 phosphorylation imaging assay in MCF-7 cells; type: cell-based; details: MCF-7 cells, 2 hours, read-out: POLR2A Ser2 phosphorylation IC50
Protocol: Compounds were tested to assess their effect on CDK9 activity in a cellular context. […] During the cell cycle, CDK9 is a component of a multiprotein complex that phosphorylates POLR2A Ser2 which results in transcription elongation.
[…] were fixed by addition of 40 μL/well of 8% paraformaldehyde and incubated for 10 minutes at room temperature. The plates were washed three times with 50 μL/well PBS using a Biotek EL406 plate washer and then permeabilized for 10 minutes at room temperature in 0.3% Triton X100 in PBS. After washing as before, the plates were blocked using 30 μL/well of 2% BSA (w/v) in PBS-T for over 30 minutes at room temperature. […] After washing in PBS as before, leaving each well in 40 μL of PBS, the plates were sealed and imaged on a Cell Insight imaging system (Thermo) with a 10× objective and 2 fields of view per well. POLR2A Ser2levels were normalized to controls and the IC50 values of test compounds determined using Genedata Screener software.

[2] = Aqueous thermodynamic solubility, shake-flask; type: physicochemical; details: phosphate buffer 0.1 M, pH 7.4, 24 hours
Protocol: The DMSO was evaporated and the dried compounds were equilibrated in glass vials in aqueous phosphate buffer (0.1 M, pH 7.4) for 24 hours at 25° C. under constant stirring. The portion with the dissolved compound was then separated from the remainder through a double centrifugation with a tip wash in between to ensure that no residues of the dried compound were interfering. The solutions were diluted with purified water before quantification using UPLC/MS/MS.

[3] = target: CDK2:CCNE1 (Homo sapiens (Human), UniProt P24941); assay: NanoBRET assay in MCF-7 cells, CDK2; type: cell-based; details: transfected MCF-7 cells, 2 hours, n = 1 or average
Protocol: Compounds were tested in breast cancer cell line MCF-7 to assess inhibition of CDK1, CDK2, and CDK4 activity. […] The next day media were evacuated from the wells using the Bluewasher centrifugal plate washer (Bluecatbio) and 10 μL/well phenol red free OptiMEM was then added using a Multidrop Combi. […] Immediately after compound addition, a Tecan HP300 dispensor was used to dispense the relevant NanoBRET™ tracer to the CDK1 wells (12.5 nl, 400 μM, NanoBRET™ TE Tracer K-9), the CDK2 wells (12.5 nl, 200 μM, NanoBRET™ TE Tracer K-9), and the CDK4 wells (8 nl, 100 μM, NanoBRET™ TE Tracer K-7) and the plates were incubated for 2 hours at 37° C. and 5% CO2. […] The plates were incubated in subdued lighting for 10 minutes and then read on a Pherastar FS plate reader (BMG Technologies) using a NanoBRET™ filter module (460±80 nm/610 nm-LP). The ratio values were normalized to controls and the IC50 values of test compounds determined using Genedata Screener software.

[4] = tested on: OVCAR3 cells; assay: Cellular proliferation EdU assay, OVCAR3; type: cell-based, human; details: EdU assay, two days, read-out: OVCAR3 IC50
Protocol: (§1) Compounds were tested to assess inhibition of cellular proliferation in the breast cancer cell line MCF-7 and the CCNE1-amplified ovarian cell line OVCAR3.
(§2) MCF-7 and OVCAR3 cells in RPMI supplemented with 10% Fetal bovine serum were seeded into 384-well plates (Greiner, Kremsmunster, Austria; 781091), 30 μL/well, using a WellMate. The MCF7 and OVCAR3 cells were seeded at 800 and 1200 cells/well, respectively. Test compounds were added to the wells using an Echo 555 liquid handler and the plates were placed in incubator maintained at 37° C. and 5% CO2 and incubated for two days. On Day 2, an EdU assay was performed following the manufacturer's protocol (Thermo Fisher, C10351). The cells were read on an Acumen eX3 instrument. The IC50 values of test compounds were determined in Genedata by assessing the ratio of signal intensity at 488 nm to the area of signal at 405 nm.

[5] = tested on: NPM phosphorylation (Thr199, CDK2-cyclin E complex); assay: NPM phosphorylation imaging assay in MCF-7 cells; type: cell-based; details: 4N DNA cells
Protocol: Compounds were tested to assess the effects of CDK2 inhibition in a cellular context. […] During the cell cycle, the CDK2-cyclin E complex phosphorylates NPM at Thr199 which is a prerequisite step for initiation of centrosome duplication.
The cells were fixed by addition of 40 μL/well of 8% paraformaldehyde and incubated at room temperature for 10 minutes. The plates were washed three times with 50 μL/well PBS using a Biotek EL406 plate washer and then permeabilized for 10 minutes at room temperature in 0.3% Triton X100 in PBS. After washing as before, the plates were blocked using 30 μL/well of 2% BSA (w/v) in PBS-T for at least 30 minutes at room temperature. […] Cells containing 4N DNA were selected using the Hoechst staining. Phospho-NPM levels were normalized to controls and the IC50 values of test compounds determined using Genedata Screener software.

[6] = CLint assessment in human liver microsomes (HLM); type: in vitro ADME; details: 1 μM
Protocol: After a preincubation with NADPH for 8 minutes, reactions were initiated through the addition of the test compound (final volume 250 μl) and incubated at 37° C. in a water bath for 30 minutes. […] Samples were shaken at 800 rpm for 2 minutes and centrifuged at 4000 rpm for 20 minutes at 4° C. to pellet precipitated protein. The supernatant fraction was diluted 1:5 with deionized water, shaken at 1000 rpm for 2 minutes, and further diluted 1:1 with deionized water. Samples were analyzed by LC-MS/MS. The t1/2 and the CLint of the compounds incubated in the LM, HLM, and HμREL assays as described above were calculated according to the following equations: […] where V (μl/×10^6 cells or mg protein) is the incubation volume (μl) divided by the number of cells (×10^6) or microsomal protein content (mg) in the incubation.

[7] = target: CDK1:CCNB1 (Homo sapiens (Human), UniProt P06493); assay: NanoBRET assay in MCF-7 cells, CDK1; type: cell-based; details: NanoBRET, transfected MCF-7 cells, 2 hours; n = 1 or average; read-out: CDK1 IC50
Protocol: (§3) Compounds were tested in breast cancer cell line MCF-7 to assess inhibition of CDK1, CDK2, and CDK4 activity. MCF-7 cells transiently transfected with CDK1:CCNB1, CDK2:CCNE1, or CDK4:CCND1 were harvested at a density of 1E5 cells/mL in complete media, seeded 20 μL/well into 384-well Greiner 784080 plates using a Multidrop Combi, and incubated overnight at 37° C. and 5% CO2. The next day media were evacuated from the wells using the Bluewasher centrifugal plate washer (Bluecatbio) and 10 μL/well phenol red free OptiMEM was then added using a Multidrop Combi. […] Immediately after compound addition, a Tecan HP300 dispensor was used to dispense the relevant NanoBRET™ tracer to the CDK1 wells (12.5 nl, 400 μM, NanoBRET™ TE Tracer K-9), the CDK2 wells (12.5 nl, 200 μM, NanoBRET™ TE Tracer K-9), and the CDK4 wells (8 nl, 100 μM, NanoBRET™ TE Tracer K-7) and the plates were incubated for 2 hours at 37° C. and 5% CO2. The plates were allowed to cool for 10 minutes at room temperature and 5 μL/well of TE Nano-Glo®Substrate/Inhibitor at 2.4 μM and 1:500 respectively (N2162 Promega) was added. The plates were incubated in subdued lighting for 10 minutes and then read on a Pherastar FS plate reader (BMG Technologies) using a NanoBRET™ filter module (460±80 nm/610 nm-LP). The ratio values were normalized to controls and the IC50 values of test compounds determined using Genedata Screener software.

[8] = target: CDK4:CCND1 (Homo sapiens (Human), UniProt P11802); assay: NanoBRET assay in MCF-7 cells, CDK4; type: cell-based; details: NanoBRET, transfected MCF-7 cells, 2 hours; n = 1 or average; read-out: CDK4 IC50
Protocol: as §3

[9] = tested on: MCF-7 cells; assay: Cellular proliferation EdU assay, MCF-7; type: cell-based; details: EdU assay, two days, read-out: MCF-7 IC50
Protocol: as §1, §2

[10] = aqueous phosphate buffer, 25 °C, pH 7.4, aqueous buffer, thermodynamic from solid

Sequence of CDK1:CCNB1 (P06493 whole entry): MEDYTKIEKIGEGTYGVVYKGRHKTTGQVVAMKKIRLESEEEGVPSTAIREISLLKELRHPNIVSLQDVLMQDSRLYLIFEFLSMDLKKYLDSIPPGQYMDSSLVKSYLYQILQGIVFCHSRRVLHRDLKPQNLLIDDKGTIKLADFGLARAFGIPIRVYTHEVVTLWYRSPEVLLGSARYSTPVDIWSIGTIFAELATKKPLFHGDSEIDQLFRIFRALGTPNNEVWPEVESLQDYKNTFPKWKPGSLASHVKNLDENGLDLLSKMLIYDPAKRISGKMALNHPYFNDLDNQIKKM
Sequence of CDK1:CCNB1 (P14635 whole entry partner): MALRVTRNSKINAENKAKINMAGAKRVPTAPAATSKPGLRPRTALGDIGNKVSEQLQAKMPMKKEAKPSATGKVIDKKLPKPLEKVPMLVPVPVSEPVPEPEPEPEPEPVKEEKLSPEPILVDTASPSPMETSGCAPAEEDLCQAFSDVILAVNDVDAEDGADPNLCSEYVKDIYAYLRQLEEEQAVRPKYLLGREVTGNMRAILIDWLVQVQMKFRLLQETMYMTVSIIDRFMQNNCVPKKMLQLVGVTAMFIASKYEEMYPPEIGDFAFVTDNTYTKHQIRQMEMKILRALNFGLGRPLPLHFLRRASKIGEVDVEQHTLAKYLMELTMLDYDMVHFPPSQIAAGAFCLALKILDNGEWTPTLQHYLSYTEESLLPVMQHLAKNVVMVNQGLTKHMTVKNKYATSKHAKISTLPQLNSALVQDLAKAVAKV
Sequence of CDK4:CCND1 (P11802 whole entry): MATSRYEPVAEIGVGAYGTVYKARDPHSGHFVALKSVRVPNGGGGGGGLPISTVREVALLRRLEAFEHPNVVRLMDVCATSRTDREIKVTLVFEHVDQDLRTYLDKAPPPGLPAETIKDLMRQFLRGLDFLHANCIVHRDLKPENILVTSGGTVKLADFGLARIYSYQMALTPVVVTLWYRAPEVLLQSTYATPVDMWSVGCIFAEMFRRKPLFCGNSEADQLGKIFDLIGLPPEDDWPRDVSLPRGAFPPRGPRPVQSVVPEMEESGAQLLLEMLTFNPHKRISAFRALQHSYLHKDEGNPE
Sequence of CDK4:CCND1 (P24385 whole entry partner): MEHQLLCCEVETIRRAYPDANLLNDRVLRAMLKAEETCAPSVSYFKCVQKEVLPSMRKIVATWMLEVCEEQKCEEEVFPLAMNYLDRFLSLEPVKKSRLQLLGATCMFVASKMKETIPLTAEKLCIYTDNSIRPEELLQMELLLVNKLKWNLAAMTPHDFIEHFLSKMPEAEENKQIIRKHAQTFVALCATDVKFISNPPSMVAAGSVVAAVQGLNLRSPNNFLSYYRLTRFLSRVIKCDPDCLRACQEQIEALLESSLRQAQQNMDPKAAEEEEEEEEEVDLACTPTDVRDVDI

| SMILES | IC50 ([1]; Homo sapiens, MCF7, 2 h) [nM] | solubility at 24 h [2, 10] [µM] | IC50 [3] [nM] | IC50 ([4]; Homo sapiens, OVCAR-3, 48 h) [nM] | IC50 ([5]; Homo sapiens, MCF7, 2 h) [nM] | HLM CLint [6] [µL/min/mg] | IC50 [7] [nM] | IC50 [8] [nM] | IC50 ([9]; Homo sapiens, MCF7, 48 h) [nM] | solubility at 24 h ([2]; 25° C.) [µM] | IC50 [4] [nM] | IC50 ([5]; 2 hours) [nM] | IC50 [9] [nM] | IC50 [1] [nM] |
| --- | --- | --- | --- | --- | --- | --- | --- | --- | --- | --- | --- | --- | --- | --- |
| CC[C@H](Nc1nc(N[C@@H]2CN(S(=O)(=O)c3ncc[nH]3)C[C@H]2F)c2ncn(C)c2n1)[C@@H](C)O (relative stereo) [Example 56, (2R,3S)-3-((6-(((3R*,4R*)-1-((1H-imidazol-2-yl)sulfonyl)-4-fluoropyrrolidin-3-yl)amino)-9-methyl-9H-purin-2-yl)amino)pentan-2-ol] | 23900 | > 1000 | 69 | 519 | 299 | 39.8 | 1500 | 22000 | 1180 |  |  |  |  |  |
| C[C@H](Nc1nc(N[C@@H]2CN(S(=O)(=O)c3ncc[nH]3)C[C@H]2F)c2ncn(C(F)F)c2n1)[C@@H](O)C(F)(F)F (relative stereo) [Example 57, (2R,3S)-3-((6-(((3R*,4R*)-1-((1H-imidazol-2-yl)sulfonyl)-4-fluoropyrrolidin-3-yl)amino)-9-(difluoromethyl)-9H-purin-2-yl)amino)-1,1,1-trifluorobutan-2-ol] | 4400 | 884 (≈ 480 µg/mL) | 11 | 155 | 55 | 33.5 | 186 | 1500 | 200 |  |  |  |  |  |
| CCNS(=O)(=O)N1CC[C@H](Nc2nc(N[C@@H](CO)CC3CC3)nc3c2ncn3CC)C1 (relative stereo) [Example 58, (S)-3-((2-(((R*)-1-cyclopropyl-3-hydroxypropan-2-yl)amino)-9-ethyl-9H-purin-6-yl)amino)-N-ethylpyrrolidine-1-sulfonamide] | > 30000 | 51.9 (≈ 23.5 µg/mL) | 17 | 431 | 137 | 202 | 671 | 1700 | 874 |  |  |  |  |  |
| CCNS(=O)(=O)N1CC[C@H](Nc2nc(N[C@@H](C)C(C)(C)O)nc3c2ncn3CC)C1 (relative stereo) [Example 59, (S)—N-ethyl-3-((9-ethyl-2-(((R*)-3-hydroxy-3-methylbutan-2-yl)-amino)-9H-purin-6-yl)amino)pyrrolidine-1-sulfonamide] | > 30000 | > 1000 | 37 | 950 | 337 | 35.9 | 1690 | 11400 | 1780 |  |  |  |  |  |
| CCn1cnc2c(N[C@H]3CCN(S(=O)(=O)NC)C3)nc(N[C@@H](C)[C@@H](O)C(F)(F)F)nc21 (single isomer, unassigned) [Example 49, (S)-3-((9-ethyl-2-(((2R*,3S*)-4,4,4-trifluoro-3-hydroxybutan-2-yl)amino)-9H-purin-6-yl)amino)-N-methylpyrrolidine-1-sulfonamide] | 20200 |  | 13 |  |  | 19.5 | 907 | 4400 |  | 120 (≈ 56 µg/mL) | 383 | 144 | 775 |  |
| CCn1cnc2c(N[C@H]3CCN(S(=O)(=O)NC)C3)nc(N[C@@H](C)[C@@H](O)C(F)(F)F)nc21 (single isomer, unassigned) [Example 50, (S)-3-((9-ethyl-2-(((2R*,3S*)-4,4,4-trifluoro-3-hydroxybutan-2-yl)amino)-9H-purin-6-yl)amino)-N-methylpyrrolidine-1-sulfonamide] |  |  | 64 |  |  | 36.3 | 2350 | 14200 |  | 23.1 (≈ 10.8 µg/mL) | 1220 | 412 | 2760 | > 30000 |

Reference: patent publication US20250197425A1, “2,6,9-TRISUBSTITUTED PURINES” (ASTRAZENECA AB, priority 2022, published 2025)
